Results as given in publication PMC10033419, “Blocking NS3–NS4B interaction inhibits dengue virus in non-human primates” (Nature, 2023).
“And” between values parts separate entries of the source, which are not always exact repeats. Equal values may be shown once.

Key:
[1] = system: hCMV AD169; assay: microbe, parasite or virus in culture; format: cell-based; conditions: Human betaherpesvirus 5, AD169, MRC5; MRC-5
[2] = system: DENV-2 RL strain; assay: Delayed-treatment study (therapeutic setting); format: in vivo, AG129 mice; conditions: for Viral Load Copies/ml / Viral Load Log10: 30 mg/kg/day, individual mice; for Viral (load), log10 of the column before (head empty) / Viral (load; head cut off): JNJ-1802 30 mg/kg
[3] = start treatment day 0 p.i., blood sampling day 3 p.i.
[4] = start treatment day 0 p.i., blood sampling day 4 p.i.
[5] = start treatment day 0 p.i., blood sampling day 5 p.i.
[6] = start treatment day 0 p.i., blood sampling day 6 p.i.
[7] = start treatment day 0 p.i., blood sampling day 7 p.i.
[8] = start treatment day 0 p.i., blood sampling day 8 p.i.
[9] = start treatment day 0 p.i., blood sampling day 9 p.i.
[10] = start treatment day 4 p.i., blood sampling day 3 p.i.
[11] = start treatment day 4 p.i., blood sampling day 4 p.i.
[12] = start treatment day 4 p.i., blood sampling day 5 p.i.
[13] = start treatment day 4 p.i., blood sampling day 6 p.i.
[14] = start treatment day 4 p.i., blood sampling day 7 p.i.
[15] = start treatment day 4 p.i., blood sampling day 8 p.i.
[16] = start treatment day 4 p.i., blood sampling day 9 p.i.
[17] = start treatment day 5 p.i., blood sampling day 3 p.i.
[18] = start treatment day 5 p.i., blood sampling day 4 p.i.
[19] = start treatment day 5 p.i., blood sampling day 5 p.i.
[20] = start treatment day 5 p.i., blood sampling day 6 p.i.
[21] = start treatment day 5 p.i., blood sampling day 7 p.i.
[22] = start treatment day 5 p.i., blood sampling day 8 p.i.
[23] = start treatment day 5 p.i., blood sampling day 9 p.i.
[24] = start treatment day 0 p.i., blood day 10, individual mice, 30 mg/kg
[25] = start treatment day 0 p.i., blood day 12, individual mice
[26] = start treatment day 0 p.i., blood day 14, individual mice, 30 mg/kg
[27] = start treatment day 4 p.i., blood day 10, individual mice, 30 mg/kg
[28] = start treatment day 4 p.i., blood day 12, individual mice
[29] = start treatment day 4 p.i., blood day 14, individual mice, 30 mg/kg
[30] = start treatment day 5 p.i., blood day 10, individual mice, 30 mg/kg
[31] = start treatment day 5 p.i., blood day 12, individual mice, 30 mg/kg
[32] = start treatment day 5 p.i., blood day 14, individual mice

COc1cc(N[C@H](C(=O)c2c[nH]c3ccc(OC(F)(F)F)cc23)c2ccc(Cl)cc2OC)cc(S(C)(=O)=O)c1 [JNJ-1802]
EC50 [1]: 9 µM | Viral Load Copies/ml [2, 3]: 1.31E+03 Copies/ml and 3.02E+03 Copies/ml | Viral Load Log10 [2, 3]: 3.1316 Log10 and 3.1169 Log10 and 3.4801 Log10 | Viral Load Copies/ml [2, 4]: 1.31E+04 Copies/ml and 1.96E+04 Copies/ml and 3.27E+03 Copies/ml and 2.07E+03 Copies/ml | Viral Load Log10 [2, 4]: 4.1169 Log10 and 4.2930 Log10 and 3.5148 Log10 and 3.3153 Log10 | Viral Load Copies/ml [2, 5]: 4.36E+03 Copies/ml and 3.27E+03 Copies/ml and 3.93E+03 Copies/ml | Viral Load Log10 [2, 5]: 3.6398 Log10 and 3.5148 Log10 and 3.5940 Log10 | Viral Load Copies/ml [2, 6]: 1.31E+03 Copies/ml and 2.07E+03 Copies/ml and 5.61E+03 Copies/ml | Viral Load Log10 [2, 6]: 3.1169 Log10 and 3.3153 Log10 and 3.7489 Log10 | Viral Load Copies/ml [2, 7]: 1.57E+03 Copies/ml and 1.64E+03 Copies/ml and 6.54E+03 Copies/ml and 9.82E+03 Copies/ml | Viral Load Log10 [2, 7]: 3.8159 Log10 and 3.9919 Log10 | Viral Load Copies/ml [2, 8]: 6.54E+03 Copies/ml and 1.96E+04 Copies/ml and 3.27E+03 Copies/ml | Viral Load Log10 [2, 8]: 3.8159 Log10 and 4.2930 Log10 and 3.5148 Log10 | Viral Load Copies/ml [2, 9]: 1.31E+03 Copies/ml and 1.64E+03 Copies/ml | Viral Load Log10 [2, 9]: 3.1169 Log10 | Viral Load Copies/ml [2, 10]: 1.96E+04 Copies/ml and 8.52E+04 Copies/ml and 2.38E+05 Copies/ml and 1.40E+06 Copies/ml | Viral Load Log10 [2, 10]: 4.2930 Log10 and 4.9304 Log10 and 5.3771 Log10 and 6.1456 Log10 | Viral Load Copies/ml [2, 11]: 5.13E+06 Copies/ml and 8.56E+06 Copies/ml and 1.09E+07 Copies/ml and 3.84E+06 Copies/ml | Viral Load Log10 [2, 11]: 6.7101 Log10 and 6.9324 Log10 and 7.0387 Log10 and 6.5839 Log10 | Viral Load Copies/ml [2, 12]: 1.69E+05 Copies/ml and 1.30E+06 Copies/ml and 9.49E+05 Copies/ml and 2.98E+05 Copies/ml | Viral Load Log10 [2, 12]: 5.8093 Log10 and 5.2288 Log10 and 6.1145 Log10 and 5.9771 Log10 and 5.4737 Log10 | Viral Load Copies/ml [2, 13]: 1.31E+03 Copies/ml and 2.07E+03 Copies/ml and 3.65E+04 Copies/ml and 6.54E+03 Copies/ml | Viral Load Log10 [2, 13]: 4.0690 Log10 and 3.1169 Log10 and 3.3153 Log10 and 4.5619 Log10 and 3.8159 Log10 | Viral Load Copies/ml [2, 14]: 1.31E+03 Copies/ml and 2.07E+03 Copies/ml and 4.29E+06 Copies/ml and 6.54E+03 Copies/ml | Viral Load Log10 [2, 14]: 3.1169 Log10 and 3.3153 Log10 and 6.6320 Log10 and 3.8159 Log10 | Viral Load Copies/ml [2, 15]: 1.31E+03 Copies/ml and 1.87E+03 Copies/ml | Viral Load Log10 [2, 15]: 3.1169 Log10 and 3.2718 Log10 | Viral Load Copies/ml [2, 16]: 1.31E+03 Copies/ml | Viral Load Log10 [2, 16]: 3.1169 Log10 | Viral Load Copies/ml [2, 17]: 1.69E+06 Copies/ml and 8.64E+05 Copies/ml | Viral Load Log10 [2, 17]: 6.8381 Log10 and 6.2281 Log10 and 5.9363 Log10 | Viral Load Copies/ml [2, 18]: 1.81E+06 Copies/ml and 3.46E+06 Copies/ml and 7.59E+06 Copies/ml and 4.62E+06 Copies/ml | Viral Load Log10 [2, 18]: 6.2566 Log10 and 6.5396 Log10 and 6.8802 Log10 and 6.6643 Log10 | Viral Load Copies/ml [2, 19]: 3.99E+07 Copies/ml and 1.36E+07 Copies/ml and 2.74E+07 Copies/ml and 2.11E+07 Copies/ml and 1.62E+07 Copies/ml | Viral Load Log10 [2, 19]: 7.5974 Log10 and 7.1163 Log10 and 7.4220 Log10 and 7.3194 Log10 and 7.2021 Log10 | Viral Load Copies/ml [2, 20]: 1.03E+06 Copies/ml and 1.20E+06 Copies/ml and 1.55E+06 Copies/ml and 4.56E+05 Copies/ml | Viral Load Log10 [2, 20]: 6.0131 Log10 and 6.0795 Log10 and 6.1913 Log10 and 5.6591 Log10 | Viral Load Copies/ml [2, 21]: 3.15E+05 Copies/ml | Viral Load Log10 [2, 21]: 5.4984 Log10 and 4.8630 Log10 | Viral Load Copies/ml [2, 22]: 1.31E+03 Copies/ml and 1.96E+03 Copies/ml and 5.65E+04 Copies/ml | Viral Load Log10 [2, 22]: 3.1169 Log10 and 3.2930 Log10 and 4.7518 Log10 | Viral Load Copies/ml [2, 23]: 1.31E+03 Copies/ml and 1.37E+04 Copies/ml | Viral Load Log10 [2, 23]: 3.1169 Log10 and 4.1354 Log10 | time until viral loads below LLOQ ([2]; 60 mg/kg/day b.i.d., start day 4): ≤ 48 h | Viral (load), log10 of the column before (head empty) [2, 24]: 3.1169 and 3.2930 | Viral (load; head cut off) [2, 24]: 1.31E+03 and 1.96E+03 | Viral (load), log10 of the column before (head empty) [2, 25]: 3.1169 | Viral (load; head cut off) [2, 25]: 1.31E+03 | Viral (load), log10 of the column before (head empty) [2, 26]: 3.1169 and 3.6909 | Viral (load; head cut off) [2, 26]: 1.31E+03 and 1.57E+03 and 4.91E+03 | Viral (load), log10 of the column before (head empty) [2, 27]: 3.1468 and 3.2930 and 3.1169 | Viral (load; head cut off) [2, 27]: 1.40E+03 and 1.96E+03 and 1.64E+03 and 1.31E+03 | Viral (load), log10 of the column before (head empty) [2, 28]: 3.1169 | Viral (load; head cut off) [2, 28]: 1.31E+03 | Viral (load), log10 of the column before (head empty) [2, 29]: 3.1169 | Viral (load; head cut off) [2, 29]: 1.31E+03 and 1.57E+03 | Viral (load), log10 of the column before (head empty) [2, 30]: 4.0084 and 3.1169 | Viral (load; head cut off) [2, 30]: 1.02E+04 and 1.31E+03 | Viral (load), log10 of the column before (head empty) [2, 31]: 3.1169 and 4.0709 | Viral (load; head cut off) [2, 31]: 1.31E+03 and 1.18E+04 | Viral (load), log10 of the column before (head empty) [2, 32]: 3.1169 | Viral (load; head cut off) [2, 32]: 1.31E+03
